Here are results for 32 molecules from patent US11702417B2, “Compounds for improving mRNA splicing” (The General Hospital Corporation, priority 2015, dated 2023).

The experiment concerns FD (familial dysautomonia) IKBKAP minigene, exon 20 inclusion, in HEK293T cells. The experiment in a line: Primary splicing assay (FD IKBKAP minigene, Firefly/Renilla luciferase reporter in HEK293T). Type of experiment: cell-based, human. The following applies: for EC (maximum kinetin efficacy) / Emax: Homo sapiens, HEK-293T; for EC (maximum kinetin efficacy): HEK293T, read-out: ECk (compound concentration at which the maximum kinetin efficacy (200 μM) is reached). How it is done:
As used herein, the expression “ECk” refers to the compound concentration at which the maximum kinetin efficacy (200 μM) is reached.
Splicing analysis was made possible by using an FD (familial dysautomonia) IKBKAP minigene which contained exon 19 through exon 21, including intervening introns, and also the T→C Thymine to cytosine transition located 6 base-pairs from the end of IKBKAP exon 20; See SEQ ID NO:3 for the complete sequence of plasmid pcDNA3.1/V5HisTOPO with Renilla-Familial Dysautonomia minigene-Firefly. Firefly luciferase (SEQ ID NO:14) was utilized as a splicing reporter, located downstream of exon 21, and Renilla luciferase (SEQ ID NO:13) was used as a control, located upstream of exon 19. The sequence of exon 19 is presented as SEQ ID NO:7; the Intron between Exon 19 and Exon 20 is SEQ ID NO:8; exon 20 is SEQ ID NO:9; the intron between […]; exon 21 is SEQ ID NO: 11, and the spliced sequence of exons 19-20-21 is SEQ ID NO:12. HEK293T cells were plated in a 6-well plate 24 hours prior to transfection. Transfection was carried out using a mixture of Opti-MEM (GIBCO ref. 31985), IKBKAP minigene, and Fugene HID (PROMEGA ref. E2311), incubated in DMEM media containing HEK293T cells at 37° C. The ratio of Opti-MEM, minigene, and Fugene was kept at approximately 9:1.5:1, with a total volume of 150 μL of transfection mixture applied per well.
After 4 hours of transfection, the cells were then plated in a 96-well plate coated with poly-L-lysine (SIGMA cat.P4707) for treatment scheduled 24 hours later. […] After 24 hours of treatment, cells were washed in the poly-L-lysine coated 96-well plate using PBS and subsequently harvested using Passive Lysis Buffer (Promega cat.E196). Cell lysate was transferred to a black and white 96-well plate and analyzed for splicing correction using a Glomax luminometer (PROMEGA GloMax® 96 Microplate Luminometer w/Dual Injectors cat.E6521) and Promega Dual Glo Firefly and Stop and Glo Renilla reagents (Cat.E196). The compound's ability to correct splicing and promote exon 20 inclusion was marked by an increase in Firefly signal. Renilla signal, which is independent of exon 20 inclusion, was used to correct for cell number. Using the ratio of Firefly to Renilla signal, a dose response curve was produced, which referenced kinetin and DMSO Firefly/Renilla ratios as positive and negative controls, respectively.
On the technique in general: In a reporter assay the amount or activity of a reporter protein is the signal.

Where [1] appears, read: Firefly/Renilla ratio, 24 hours of treatment.
[2] abbreviates: max efficacy in Primary Assay, Firefly/Renilla ratio, kinetin and DMSO as positive and negative controls, 24 hours of treatment, read-out: Emax (%).

For orientation: Emax means the size of the effect at its maximum, as opposed to the concentration needed.

Structures are written as SMILES. Where two headings read alike, the source gives them in different places.

As for `FC(F)(F)COc1nc2c(NCc3cscn3)nc(Cl)nc2[nH]1` [(392)], the EC (maximum kinetin efficacy) under setting [1] amounted to 1.9 µM. Moreover, the Emax under setting [2] was found to be 134%.

For `c1csc(CNc2ncnc3[nH]cnc23)n1` [(16)], under setting [2], the Emax turned out to be 67%.

On to `CN(Cc1ccco1)c1ncnc2[nH]cnc12` [(403)], for which, under setting [2], the maximal response (Emax) was 39%.

Turning to `C[C@@H](Nc1ncnc2[nH]cnc12)c1ccco1` [(411)], the Emax under setting [2] is 55%.

`Fc1cccnc1CNc1nc(Cl)nc2[nH]ccc12` [(495)]: the Emax under setting [2] stood at 13.9%.

Consider `Clc1nc(NCc2ccco2)c2cn[nH]c2n1` [(85)], for which the Emax under setting [2] stood at 96%.

As for `FC(F)(F)CCn1ccc2c(NCc3ccco3)nc(Cl)nc21` [(160)], under setting [2], the Emax was found to be 85%.

Turning to `COc1nc2c(NCc3ccco3)nc(Cl)nc2n1CCO` [(297)], under setting [1], the EC (maximum kinetin efficacy) was determined as 4.09 µM. In addition, under setting [2], the Emax was 150%.

Regarding `CC(C)(C)OC(=O)N1Cc2nc(Cl)nc(NCc3nccs3)c2C1` [(509)], the Emax under setting [2] turned out to be 40.8%.

As to `COc1nc2c(NCc3ccncc3)nc(Cl)nc2n1CCO` [(287)], the EC (maximum kinetin efficacy) under setting [1] came to 7.56 µM. The maximum response (Emax) under setting [2] came out at 106%.

Turning to `COCCOc1nc2c(NCc3ccco3)nc(Cl)nc2[nH]1` [(293)], the EC (maximum kinetin efficacy) under setting [1] was found to be 1.78 µM. The Emax under setting [2] was 169%.

On to `CCCOc1nc2c(NCc3ccncc3)nc(Cl)nc2[nH]1` [(282)], for which the EC (maximum kinetin efficacy) under setting [1] was 0.42 µM. The Emax under setting [2] was 233%.

For the molecule `FCCn1ccc2c(NCc3ccco3)nc(Cl)nc21` [(150)], the maximum response (Emax) (max efficacy, value marked (RT-PCR), footnote a: Firefly inhibitor, read-out: Emax (%) (RT-PCR)) amounted to 320%. Further, the “ECk (RT-PCR)” value (determined by RT-PCR, footnote a Firefly inhibitor, footnote b Renilla interference) was 1 to 10 µM.

Regarding `Clc1nc(NCc2ccco2)c2ncn(Cc3cccnc3)c2n1` [(76)], the Emax under setting [2] was determined as 69%.

Consider `CSc1nc2c(NCc3ccncn3)nc(Cl)nc2[nH]1` [(303)], for which, under setting [1], the EC (maximum kinetin efficacy) stood at 1.51 µM. Under setting [2], the Emax is 243%.

Consider `Clc1cc(NCc2nccs2)n2ccnc2n1` [(295)], for which the Emax under setting [2] came out at 54%.

As for `Cn1cnc2nc(Cl)nc(NCc3nccs3)c21` [(304)], the EC (maximum kinetin efficacy) under setting [1] was 4.14 µM. Besides, the Emax under setting [2] worked out at 166%.

Take `Cc1cn(CCO)c2nc(Cl)nc(NCc3nccs3)c12` [(125)]: the EC (maximum kinetin efficacy) under setting [1] was determined as 6.52 µM. Further, the Emax under setting [2] was determined as 225%.

For `OCCn1ncc2c(NCc3ccco3)nc(Cl)nc21` [(209)], under setting [1], the EC (maximum kinetin efficacy) was found to be 12.2 µM. Further, the Emax under setting [2] worked out at 176%.

`CCCOc1nc2c(NCc3ccncn3)nc(Cl)nc2[nH]1` [(317)]: under setting [1], the EC (maximum kinetin efficacy) stood at 0.16 µM. Besides, the Emax under setting [2] stood at 223%.

Take `FC(F)(F)c1cccc(CNc2ncnc3[nH]cnc23)c1` [(10)]: the Emax under setting [2] is 21%.

Turning to `Clc1nc(NCc2ccco2)c2cc(C3CC3)[nH]c2n1` [(156)], the EC (maximum kinetin efficacy) under setting [1] worked out at 15.8 µM. Further, under setting [2], the maximal effect (Emax) was determined as 73%.

As for `Clc1cc(NCc2nccs2)n2ncnc2n1` [(281)], the Emax under setting [2] is 17%.

Take `Clc1nc(NCc2nccs2)c2nc(OCC#Cc3ccccc3)[nH]c2n1` [(476)]: the Emax under setting [2] was found to be 25.5%.

On to `OCc1c[nH]c2nc(Cl)nc(NCc3ccco3)c12` [(109)], for which the Emax (max efficacy, Firefly only, footnote c: Renilla interference/Firefly only, read-out: Emax (%) Firefly only) worked out at 128%. The “ECk, Firefly only” value (Renilla interference/Firefly only (footnote c)) came to 12.16 µM⁻¹.

On to `O=c1cc(CNc2nc(Cl)nc3[nH]ccc23)cc[nH]1` [(248)], for which, under setting [2], the Emax stood at 10%.

Regarding `Clc1nc(NCc2ccncc2)c2cn[nH]c2n1` [(217)], under setting [1], the EC (maximum kinetin efficacy) came to 7.07 µM. For the same molecule, the Emax under setting [2] was 151%.

Turning to `Clc1nc(NCc2nccs2)c2nc(OCC3CCC3)sc2n1` [(341)], under setting [1], the EC (maximum kinetin efficacy) amounted to 4.16 µM. For the same molecule, the Emax under setting [2] is 155%.

Regarding `Clc1nc(NCc2cscn2)c2nc[nH]c2n1` [(381)], the maximal effect (Emax) under setting [2] came out at 63.4%.

In the case of `Clc1nc(NCc2ncccn2)c2cc[nH]c2n1` [(361)], the Emax under setting [2] came to 9.8%.

As for `Cn1cnc2nc(Cl)nc(NCc3ccncc3)c21` [(313)], under setting [1], the EC (maximum kinetin efficacy) turned out to be 7.48 µM. The Emax under setting [2] amounted to 102%.

For `COc1nc2c(NCc3nccs3)nc(Cl)nc2n1CCO` [(278)], the EC (maximum kinetin efficacy) under setting [1] is 6.37 µM. Also, the Emax under setting [2] amounted to 141%.
